Measurements published in patent US10786471B2, “Methods and products related to glutaminase inhibitors” (Massachusetts Institute of Technology, priority 2017, dated 2020).
“Also recorded” adds a separate entry of the source. Read-outs that look alike come from different tables or passages of the source.

Assays:
MDA-MB-468 = assay: Proliferation rate of MDA-MB-468 cells overexpressing SLC7A11 with 1 μM CB-839; assay type: cell-based; settings: SLC7A11 overexpression, RPMI vs RPMI (10 μM cystine)
Protocol: (§1) Proliferation rates for MDA-MB-468 and AU565 cell lines overexpressing SLC7A11 or not (from FIG. 4G) in RPMI or RPMI (10 μM cystine) with vehicle (DMSO) or 1 μM CB-839 are shown. The values represent the mean and the error bars represent ±SEM.
(§2) Cell lines growing in log phase in RPMI medium were trypsinized, counted and plated into 6 well dishes in 2 mL of RPMI medium and incubated overnight. Initial seeding density was 20,000 cells/well for A549 cells, or 50,000 cells for MCF7, AU565 and MDA-MB-468 cells. The next day, a plate of cells was trypsinized and counted to provide a number of cells at the start of the experiment. Cells were then washed twice with 2 mL of PBS, and […] of the indicated media premixed with indicated compounds or vehicles was added. Cells were then counted 4 days after adding the indicated medias. Proliferation rate was determined using the following formula:
(§3) Proliferation rate in doublings/day=[Log 2(Final Day 4 cell count/Initial Day 0 cell count)]/4 days. Cells were counted using a Cellometer Auto t$ Plus Cell Counter (Nexcelom Bioscience).

breast cancer cell lines = settings: RPMI, cited from earlier work
AU565 = assay: Proliferation rate of AU565 cells overexpressing SLC7A11 with 1 μM CB-839; assay type: cell-based; settings: SLC7A11 overexpression, RPMI vs RPMI (10 μM cystine)
Protocol: as §1, §2, §3

A549 cells [1] = assay: Proliferation rate of A549 cells with vehicle or 1 μM CB-839 in different media; assay type: cell-based, human; settings: cystine at RPMI/DMEM levels
Protocol: Each medium included ^13C5-glutamine added to ˜33% enrichment (n=3). […] For all parts of the figure, the values represent the mean and the error bars represent ±SEM. […] In FIG. 8A, A549 cells were cultured in adult bovine serum with DMEM nutrient levels, adult bovine serum with DMEM amino acid levels, and adult bovine serum with DMEM amino acid levels but without supplementation of the amino acids indicated in each column. For each medium, the proliferation rate for cells grown with vehicle (DMSO) or 1 μM CB-839 is shown (n=3). […] Cell lines growing in log phase in RPMI medium were trypsinized, counted and plated into 6 well dishes in 2 mL of RPMI medium and incubated overnight. […] The next day, a plate of cells was trypsinized and counted to provide a number of cells at the start of the experiment. […] Cells were then counted 4 days after adding the indicated medias. Proliferation rate was determined using the following formula: Proliferation rate in doublings/day=[Log 2(Final Day 4 cell count/Initial Day 0 cell count)]/4 days. Cells were counted using a Cellometer Auto t$ Plus Cell Counter (Nexcelom Bioscience).

A549 cells [2] = assay: 13C5-glutamine tracing of glutamine anaplerosis in cultured A549 cells; assay type: cell-based, human; settings: A549 cells cultured 8 h; high cystine (208 μM added to adult bovine serum)
From the text: Each medium included ^13C5-glutamine added to ˜33% enrichment (n=3). […] For all parts of the figure, the values represent the mean and the error bars represent ±SEM.

A549 tumors = assay: Tumor glutamine anaplerosis in A549 tumor-bearing mice after oral cystine; assay type: in vivo; settings: oral cystine before 13C5-glutamine bolus
Protocol: In FIG. 5A, nu/nu mice were treated orally with 2.4 g/kg cystine and plasma from these animals was serially collected at the indicated time points. Cystine concentration of the plasma was determined by GC-MS. In FIG. 5B, A549 tumor-bearing mice were treated (n=4) or not (n=3) with oral cystine prior to bolus ^13C5-glutamine injection prior to harvesting the plasma and tumors. […] In FIG. 5C, intratumoral glutamate (m+5) and α-ketoglutarate (m+5) labeling from FIG. 5B were normalized to tumor glutamine (m+5).

Compound | sensitivity of proliferation to CB-839 (MDA-MB-468) | IC50 (breast cancer cell lines; 'resistant' breast cancer cell lines, maximal CB-839 tested 1 μM) | IC50 (breast cancer cell lines; sensitive breast cancer cell lines) | sensitivity of proliferation to CB-839 (AU565) | effect of cystine on CB-839 inhibition of proliferation (A549 cells [1]) | effect on glutamine anaplerosis (fractional labeling from 13C5-glutamine) (A549 cells [2]) | effect on tumor glutamine anaplerosis in vivo (A549 tumors)
O=C(Cc1cccc(OC(F)(F)F)c1)Nc1ccc(CCCCc2nnc(NC(=O)Cc3ccccn3)s2)nn1 [CB-839] | cystine-induced CB-839 sensitivity | > 1 µM | < 1 µM | cystine-induced CB-839 sensitivity | – | – | –
N[C@@H](CSSC[C@H](N)C(=O)O)C(=O)O [cystine] | – | – | – | – | potentiate the effects of the glutaminase inhibitor CB-839; also recorded: potentiates the glutaminase inhibitor CB-839 | enhance glutamine anaplerosis | increases tumor glutamine anaplerosis in vivo
